Experimental data taken from patent US12252490B2, “Inhibiting deubiquitinase USP25 and USP28” (Valo Health, Inc., priority 2018, dated 2025).

What follows are molecules tested against T1, USP28 (USP28-5(1-1077)-TEV-6*His; LifeSensors) (Homo sapiens, UniProt Q96RU2) (assay: Ubiquitin-Rhodamine 110 Assay for USP28 Activity, Example A-1(b)). Conditions: 75 pM enzyme, 25 nM Ub-Rh110, 384-well follow-up format.
T1 construct: construct USP28 (USP28-5(1-1077)-TEV-6*His; LifeSensors); TEV cleavage site (C); 6xHis (C); purchased LifeSensors
T1 sequence (Q96RU2 1-1077): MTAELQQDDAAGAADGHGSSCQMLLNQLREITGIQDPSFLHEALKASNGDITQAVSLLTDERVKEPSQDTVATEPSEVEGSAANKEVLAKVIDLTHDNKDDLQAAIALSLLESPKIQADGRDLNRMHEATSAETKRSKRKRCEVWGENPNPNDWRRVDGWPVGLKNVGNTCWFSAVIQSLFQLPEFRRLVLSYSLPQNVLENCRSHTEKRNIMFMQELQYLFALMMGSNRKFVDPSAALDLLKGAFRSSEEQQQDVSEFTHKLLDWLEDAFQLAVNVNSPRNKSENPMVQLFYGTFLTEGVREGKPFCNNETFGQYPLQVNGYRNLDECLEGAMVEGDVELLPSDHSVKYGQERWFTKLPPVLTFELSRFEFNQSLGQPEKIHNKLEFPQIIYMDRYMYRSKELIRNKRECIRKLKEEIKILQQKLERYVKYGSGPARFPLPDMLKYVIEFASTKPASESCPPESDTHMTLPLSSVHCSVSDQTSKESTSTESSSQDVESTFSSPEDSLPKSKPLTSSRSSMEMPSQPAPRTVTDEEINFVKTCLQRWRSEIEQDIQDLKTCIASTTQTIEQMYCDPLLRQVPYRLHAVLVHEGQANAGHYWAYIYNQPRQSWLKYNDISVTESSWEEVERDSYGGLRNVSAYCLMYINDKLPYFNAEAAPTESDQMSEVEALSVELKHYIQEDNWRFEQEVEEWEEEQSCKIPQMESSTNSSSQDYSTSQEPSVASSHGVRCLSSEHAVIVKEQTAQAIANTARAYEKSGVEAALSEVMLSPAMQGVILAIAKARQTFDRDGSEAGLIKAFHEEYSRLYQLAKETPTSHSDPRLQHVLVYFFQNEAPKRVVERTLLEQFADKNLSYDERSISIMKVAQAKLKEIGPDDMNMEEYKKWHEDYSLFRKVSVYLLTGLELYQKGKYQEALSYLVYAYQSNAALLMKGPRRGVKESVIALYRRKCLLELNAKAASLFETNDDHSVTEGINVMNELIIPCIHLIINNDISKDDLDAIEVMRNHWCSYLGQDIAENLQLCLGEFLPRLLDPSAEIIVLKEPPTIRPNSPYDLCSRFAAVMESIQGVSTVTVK
Assay type: biochemical
Method: Each assay was performed in a final volume of 20 μL in assay buffer containing 20 mM Tris-HCl (pH 8.0, (1M Tris-HCl, pH 8.0 solution; Corning 46-031-CM)), 2 mM CaCl2 (1M Calcium Chloride solution; Sigma #21114) 2 mM BME (2-Mercaptoethanol; Sigma 63689-25ML-F), 0.01% Prionex ([…] filtered, Sigma #G-0411), and 0.01% Triton X-100. Stock compound solutions were stored at −20° C. as 10 mM in DMSO. Up to 1 month prior to the assay, 2 mM test compounds were pre-dispensed into assay plates (Black, low volume; Corning #3820) and frozen at −20° C. Prestamped assay plates were allowed to come to room temperature on the day of the assay. For the screen, 100 nL of 2 mM was pre-dispensed for a final screening concentration of 10 μM (DMSO(fc)=0.5%). Enzyme (USP28, construct USP28 (USP28-5(1-1077)-TEV-6*His; LifeSensors) concentration and incubation times were optimized for the maximal signal-to-background while maintaining initial velocity conditions at a fixed substrate concentration. The final concentration of the enzyme in the assay was 400 pM. Final substrate (Ub-Rh110; Ubiquitin-Rhodamine 110, R&D Systems #U-555) concentration was 25 nM with [Ub-Rh110]<<Km. 10 μL of 2× enzyme was added to assay plates (pre-stamped with compound) either simultaneously with 2×Ub-Rh110 or preincubated with USP28 40 minutes prior to the addition of 10 μL of 2×Ub-Rh110 to compound plates. Plates were incubated stacked for 90 minutes at room temperature before fluorescence was read on the Envision (Excitation at 485 nm and Emission at 535 nm; Perkin Elmer) or on the PheraSTAR (Excitation at 485 nm and Emission at 535 nm; BMG Labtech).
For follow-up studies, each assay was performed in a final volume of 15 μL in assay buffer containing 20 mM Tris-HCl (pH 8.0, (1M Tris-HCl, pH 8.0 solution; Corning 46-031-CM)), 3 mM BME (2-Mercaptoethanol; Sigma 63689-25ML-F), 0.03% BGG (0.22 μM filtered, Sigma, G7516-25G), and 0.01% Triton X-100 (Sigma, T9284-10L). Nanoliter quantities of either an 8-point or 10-point, 3-fold serial dilution in DMSO was pre-dispensed into assay plates (Perkin Elmer, ProxiPlate-384 F Plus, #) for a final test concentration of either 25 μM to 11 nM or 25 μM to 1.3 nM, respectively. Enzyme USP28, construct USP28 (USP28-5(1-1077)-TEV-6*His; LifeSensors) concentration and incubation times were optimized for the maximal signal-to-background while maintaining initial velocity conditions at a fixed substrate concentration. The final concentration of the enzyme in the assay was 75 pM. Final substrate (Ub-Rh110; Ubiquitin-Rhodamine 110, R&D Systems #U-555) concentration was 25 nM with [Ub-Rh110]<<Km. 5 μL of 2× enzyme was added to assay plates (pre-stamped with compound) preincubated with USP28 for 30 minutes and then 5 μL of 2×Ub-Rh110 was added to assay plates. Plates were incubated stacked for 20 minutes at room temperature before 5 μL of stop solution was added (final concentration of 10 mM citric acid (Sigma, 251275-500G)). Fluorescence was read on the Envision (Excitation at 485 nm and Emission at 535 nm; Perkin Elmer) or on the PheraSTAR (Excitation at 485 nm and Emission at 535 nm; BMG Labtech).
For assay formats Examples A-1a, A-1b, and A-2, data were reported as percent inhibition compared with control wells based on the following equation: % inh=1−((FLU−AveLow)/(AveHigh−AveLow)) where FLU=measured Fluorescence, AveLow=average Fluorescence of no enzyme control (n=16), and AveHigh=average Fluorescence of DMSO control (n=16). IC50 values were determined by curve fitting of the standard 4 parameter logistic fitting algorithm included in the Activity Base software package: IDBS XE Designer Model205. Data is fitted using the Levenburg Marquardt algorithm.
With `CCn1ccc2cc(C(=O)NC[C@@H](C)c3cc(F)c(N4CCNCC4)cc3F)cnc21` (single isomer, unassigned) [Example 2-1] the “Assay A-1(b) (IC50 range)” value was “++ (“++”: 0.2-2 μM)”.
For `CCn1ccc2cc(C(=O)NC[C@H](C)c3cc(F)c(N4CCNCC4)cc3F)cnc21` (single isomer, unassigned) [Example 2-2], the “Assay A-1(b) (IC50 range)” value was “+ (“+”: 2-10 μM)”.
For `CCn1ccc2cc(C(=O)NC[C@H](C)c3cc(F)c(N4CC5CCC(C4)N5)cc3F)cnc21` (single isomer, unassigned) [Example 2-3], the “Assay A-1(b) (IC50 range)” value was “++ (“++”: 0.2-2 μM)”.
With `CCn1ccc2cc(C(=O)NC[C@@H](C)c3cc(F)c(N4CC5CCC(C4)N5)cc3F)cnc21` (single isomer, unassigned) [Example 2-4] the “Assay A-1(b) (IC50 range)” value was “++ (“++”: 0.2-2 μM)”.
In the case of `CCn1ccc2cc(C(=O)NC[C@H](C)c3cc(F)c(N4CC5CCC(C4)N5)cc3F)nnc21` (single isomer, unassigned) [Example 4-2], the “Assay A-1(b) (IC50 range)” value is reported as “++ (“++”: 0.2-2 μM)”.
With `CCn1ccc2cc(C(=O)NC[C@@H](C)c3cc(F)c(N4CC5CCC(C4)N5)cc3F)nnc21` (single isomer, unassigned) [Example 4-3] the “Assay A-1(b) (IC50 range)” value was “++ (“++”: 0.2-2 μM)”.
With `CCn1ccc2cc(C(=O)NCCc3cc(F)c(N4CC5CCC(C4)N5)cc3F)cnc21` [Example 1-1, N-[2-(4-[3,8-diazabicyclo[3.2.1]octan-3-yl]-2,5-difluorophenyl)ethyl]-1-ethyl-1H-pyrrolo[2,3-b]pyridine-5-carboxamide] the “Assay A-1(b) (IC50 range)” value was “+++ (“+++”: 0.05-0.2 μM)”.
For `O=C(NCCc1ccc(N2CCNCC2)cc1)c1cnc2[nH]ccc2c1` [Example 1-2, N-(4-(piperazin-1-yl)phenethyl)-1H-pyrrolo[2,3-b]pyridine-5-carboxamide], the “Assay A-1(b) (IC50 range)” value was “+ (“+”: 2-10 μM)”.
In the case of `Cn1ccc2cc(C(=O)NCCc3ccc(N4CCNCC4)cc3)cnc21` [Example 1-3, 1-methyl-N-(4-(piperazin-1-yl)phenethyl)-1H-pyrrolo[2,3-b]pyridine-5-carboxamide], the “Assay A-1(b) (IC50 range)” value is reported as “++ (“++”: 0.2-2 μM)”.
`CCn1ccc2cc(C(=O)NCCc3ccc(N4CCNCC4)cc3)cnc21` [Example 1-4, 1-ethyl-N-(4-(piperazin-1-yl)phenethyl)-1H-pyrrolo[2,3-b]pyridine-5-carboxamide] was tested, and the “Assay A-1(b) (IC50 range)” value was “+++ (“+++”: 0.05-0.2 μM)”.
For `Nc1c(C(=O)NCCc2ccc(N3CCNCC3)cc2)cnc2[nH]ccc12` [Example 1-5, 4-amino-N-(4-(piperazin-1-yl)phenethyl)-1H-pyrrolo[2,3-b]pyridine-5-carboxamide], the “Assay A-1(b) (IC50 range)” value was “+ (“+”: 2-10 μM)”.
For `CCn1ccc2cc(C(=O)NCCc3ccc(N4CC5CCC(C4)N5)cc3)cnc21` [Example 1-6, N-(4-(3,8-diazabicyclo[3.2.1]octan-3-yl)phenethyl)-1-ethyl-1H-pyrrolo[2,3-b]pyridine-5-carboxamide], the “Assay A-1(b) (IC50 range)” value was “++++ (“++++”: 0.001-0.05 μM)”.
`CCn1ccc2cc(C(=O)NCCc3cc(F)c(N4CCNCC4)cc3F)cnc21` [Example 1-7, N-(2,5-difluoro-4-(piperazin-1-yl)phenethyl)-1-ethyl-1H-pyrrolo[2,3-b]pyridine-5-carboxamide] was tested, and the “Assay A-1(b) (IC50 range)” value was “+++ (“+++”: 0.05-0.2 μM)”.
With `O=C(NCCc1ccc(N2CCNCC2)cc1)c1cnc2c(ccn2CC(F)(F)F)c1` [Example 1-8] the “Assay A-1(b) (IC50 range)” value was “+++ (“+++”: 0.05-0.2 μM)”.
For `CC(C)(O)Cn1ccc2cc(C(=O)NCCc3cc(F)c(N4CC5CCC(C4)N5)cc3F)cnc21` [Example 1-9, N-(4-(3,8-diazabicyclo[3.2.1]octan-3-yl)-2,5-difluorophenethyl)-1-(2-hydroxy-2-methylpropyl)-1H-pyrrolo[2,3-b]pyridine-5-carboxamide], the “Assay A-1(b) (IC50 range)” value was “− (“−”: >10 μM)”.
In the case of `CCn1ccc2cc(C(=O)NCCc3ccc(N4CC5CCC(C4)N5)c(F)c3)cnc21` [Example 1-10, N-(4-(3,8-diazabicyclo[3.2.1]octan-3-yl)-3-fluorophenethyl)-1-ethyl-1H-pyrrolo[2,3-b]pyridine-5-carboxamide], the “Assay A-1(b) (IC50 range)” value is reported as “+++ (“+++”: 0.05-0.2 μM)”.
With `CCn1cc(Cl)c2cc(C(=O)NCCc3ccc(N4CCNCC4)cc3)cnc21` [Example 3-1, 3-Chloro-1-ethyl-N-[2-[4-(piperazin-1-yl)phenyl]ethyl]-1H-pyrrolo[2,3-b]pyridine-5-carboxamide] the “Assay A-1(b) (IC50 range)” value was “+++ (“+++”: 0.05-0.2 μM)”.
For `O=C(NCCc1ccc(N2CCNCC2)cc1)c1cnc2[nH]cc(Cl)c2c1` [Example 3-2, 3-chloro-N-(4-(piperazin-1-yl)phenethyl)-1H-pyrrolo[2,3-b]pyridine-5-carboxamide], the “Assay A-1(b) (IC50 range)” value was “+ (“+”: 2-10 μM)”.
`CCn1ccc2cc(C(=O)NCCc3cc(F)c(N4CC5CCC(C4)N5)cc3F)nnc21` [Example 4-1, N-[2-(4-[3,8-diazabicyclo[3.2.1]octan-3-yl]-2,5-difluorophenyl)ethyl]-7-ethyl-7H-pyrrolo[2,3-c]pyridazine-3-carboxamide] was tested, and the “Assay A-1(b) (IC50 range)” value was “+++ (“+++”: 0.05-0.2 μM)”.
With `CCn1cc(Cl)c2cc(C(=O)NCCc3cc(F)c(N4CC5CCC(C4)N5)cc3F)nnc21` [Example 4-4, N-(4-(3,8-diazabicyclo[3.2.1]octan-3-yl)-2,5-difluorophenethyl)-5-chloro-7-ethyl-7H-pyrrolo[2,3-c]pyridazine-3-carboxamide] the “Assay A-1(b) (IC50 range)” value was “+++ (“+++”: 0.05-0.2 μM)”.
